Measured values from BindingDB's records for doi:10.1124/jpet.104.066688 (Acadia Pharmaceuticals, 2004).

Target: T1, 5-hydroxytryptamine receptor 2C (Homo sapiens, UniProt P28335)
T1 sequence (P28335 whole entry): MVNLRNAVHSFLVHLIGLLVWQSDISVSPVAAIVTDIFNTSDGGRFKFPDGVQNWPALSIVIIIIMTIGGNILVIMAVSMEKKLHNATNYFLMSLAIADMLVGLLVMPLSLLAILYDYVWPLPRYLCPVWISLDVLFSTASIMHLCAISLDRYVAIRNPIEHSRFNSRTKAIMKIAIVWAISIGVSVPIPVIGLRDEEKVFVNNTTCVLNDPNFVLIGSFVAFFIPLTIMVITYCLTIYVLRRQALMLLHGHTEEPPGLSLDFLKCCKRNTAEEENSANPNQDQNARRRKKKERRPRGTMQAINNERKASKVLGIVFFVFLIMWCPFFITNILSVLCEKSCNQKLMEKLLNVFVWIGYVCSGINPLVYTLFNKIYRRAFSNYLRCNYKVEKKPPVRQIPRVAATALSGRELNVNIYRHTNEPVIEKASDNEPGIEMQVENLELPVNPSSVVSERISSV

COc1ccc(CC(=O)N(Cc2ccc(C)cc2)C2CCN(C)CC2)cc1 [N-(4-Methylbenzyl)-N-(1-methyl-4-piperidinyl)-4-methoxybenzeneacetamide]
Ki: 2.9 nM
